The results in this text go back to patent publication US9029405B2, “5-(biphenyl-4-yl)-3-phenyl-1,2,4-oxadiazolyl derivatives as ligands on the sphingosine 1-phosphate(SIP)receptors” (Merck Serono S.A., priority 2010, dated 2015).

For one data set, the target named is S1P3 (Homo sapiens, UniProt Q99500). The data set is described as follows: Receptor binding assay, [33P]sphingosine 1-phosphate competition, membranes of CHO cells expressing S1P3. The following applies: 384 well plate; read-out: S1P3 Binding Ki [M] (384 well plate). In outline: (§1)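 SPA competition on CHO membranes with [33P]S1P at 30 pM (S1P1) or 15 pM (S1P3), in 50 mM HEPES pH 7.5, 5 mM MgCl2, 100 mM NaCl, 0.4% fatty acid-free BSA, 60 min at RT. Non-specific binding defined by 1000-fold unlabeled S1P; Ki values reported.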
Chain of S1P3 (Q99500 whole entry, species assumed): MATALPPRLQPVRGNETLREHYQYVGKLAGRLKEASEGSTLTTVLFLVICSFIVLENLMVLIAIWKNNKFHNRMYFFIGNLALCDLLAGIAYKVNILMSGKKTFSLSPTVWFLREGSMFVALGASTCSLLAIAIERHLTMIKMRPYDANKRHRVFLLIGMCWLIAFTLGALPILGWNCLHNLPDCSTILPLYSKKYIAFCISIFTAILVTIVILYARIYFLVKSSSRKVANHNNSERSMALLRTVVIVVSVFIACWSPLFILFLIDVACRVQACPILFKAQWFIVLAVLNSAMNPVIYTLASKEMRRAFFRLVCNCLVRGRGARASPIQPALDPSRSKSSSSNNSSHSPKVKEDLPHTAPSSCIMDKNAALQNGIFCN

Data set [1] concerns the target T1, S1P1 (Homo sapiens, UniProt P21453). The data set is described as follows: Receptor binding assay, [33P]sphingosine 1-phosphate competition, membranes of CHO cells expressing S1P1. The essentials:
as §1
Target sequence in this assay (P21453 whole entry, species assumed): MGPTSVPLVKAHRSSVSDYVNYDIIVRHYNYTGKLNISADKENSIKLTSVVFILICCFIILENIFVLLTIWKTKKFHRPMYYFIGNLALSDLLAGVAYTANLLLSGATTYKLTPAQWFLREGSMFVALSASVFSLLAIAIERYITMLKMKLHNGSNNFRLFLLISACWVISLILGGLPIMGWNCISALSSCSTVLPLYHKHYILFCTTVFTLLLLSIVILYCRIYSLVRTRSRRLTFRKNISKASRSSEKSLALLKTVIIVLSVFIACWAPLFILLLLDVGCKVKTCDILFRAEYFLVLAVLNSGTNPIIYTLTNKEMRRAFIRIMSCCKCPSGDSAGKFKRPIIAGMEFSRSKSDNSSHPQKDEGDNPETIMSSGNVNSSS

For data set [2], the target named is T1, S1P1. The data set is described as follows: S1P1 internalization assay in S1P1-U2OS cells (cell imaging). Details: host or cells: U2OS (human bone osteosarcoma epithelial cells). The following applies: U2OS cells expressing S1P1-EGFP, 384-well format. The data set is classed as cell-based. In outline:
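U2OS cells stably expressing human S1P1-EGFP, serum-starved 2 h in medium with 0.1% fatty-acid-free BSA, then compound 1 h at 37° C. After fixation and Hoechst nuclear stain, receptor internalization imaged as EGFP spot count per nucleus.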
Target sequence in this assay (P21453 whole entry): as the sequence (P21453 whole entry, species assumed) above

Where [3] appears, read: 384 well plate, read-out: S1P1 Binding Ki [M] (384 well plate).

In general, melting point refers to the temperature, or range, at which the solid turns liquid. In general, Ki refers to the dissociation constant of the complex between target and ligand, obtained from inhibition or displacement. The term EC50 denotes the concentration needed to bring the measured effect to its halfway point. A lower EC50 goes with an effect from little substance.

Where a name gives a salt, the structure may show the parent alone. Read-outs that look alike come from different tables or passages of the source. A value given as a limit tells only on which side of the number the result lay.

In turn, `Cc1ccccc1-c1ccc(-c2nc(-c3cccc(C(C)NCC(=O)O)c3)no2)cc1C(F)(F)F` (stereo not drawn) (as salt: hydrochloride) [Example 42, N-[1-(3-{5-[2′-methyl-2-(trifluoromethyl)biphenyl-4-yl]-1,2,4-oxadiazol-3-yl}phenyl)ethyl]glycine, hydrochloride salt] showed a melting point of 177 °C.

In the case of `Cc1cc(-c2nc(-c3ccc([C@H](C)N(C)CC(=O)O)cc3)no2)ccc1-c1ccccc1C(F)(F)F` (as salt: hydrochloride) [Example 33, N-methyl-N-[(1S)-1-(4-{5-[2-methyl-2′-(trifluoromethyl)biphenyl-4-yl]-1,2,4-oxadiazol-3-yl}phenyl)ethyl]glycine, hydrochloride salt], the melting point is 217 °C.

Molecule `Cc1ccccc1-c1ccc(-c2nc(-c3ccc([C@H](C)N(C)CC(=O)O)cc3)no2)cc1C(F)(F)F` (as salt: hydrochloride) [Example 34, N-methyl-N-[(1S)-1-(4-{5-[2′-methyl-2-(trifluoromethyl)biphenyl-4-yl]-1,2,4-oxadiazol-3-yl}phenyl)ethyl]glycine, hydrochloride salt] returned a melting point of 221 °C.

As for `Cc1ccccc1-c1ccc(-c2nc(-c3ccc([C@@H](C)N(C)CC(=O)O)cc3)no2)cc1C(F)(F)F` (as salt: hydrochloride) [Example 36, N-methyl-N-[(1R)-1-(4-{5-[2′-methyl-2-(trifluoromethyl)biphenyl-4-yl]-1,2,4-oxadiazol-3-yl}phenyl)ethyl]glycine, hydrochloride salt], the melting point is 221 °C.

`CCC(NCc1ccc(-c2noc(-c3ccc(-c4ccccc4C)c(C(F)(F)F)c3)n2)cc1F)C(=O)O` (stereo not drawn) (as salt: hydrochloride) [Example 41, 2-[(2-fluoro-4-{5-[2′-methyl-2-(trifluoromethyl)biphenyl-4-yl]-1,2,4-oxadiazol-3-yl}benzyl)amino]butanoic acid, hydrochloride salt]: the melting point came to 214 °C.

`Cc1ccccc1-c1ccc(-c2nc(-c3ccc(C(C)N(C)CC(=O)O)cc3)no2)cc1C(F)(F)F` (stereo not drawn) (as salt: hydrochloride) [Example 40, N-methyl-N-[1-(4-{5-[2′-methyl-2-(trifluoromethyl)biphenyl-4-yl]-1,2,4-oxadiazol-3-yl}phenyl)ethyl]glycine, hydrochloride salt] displayed a melting point of 204 °C.

Turning to `Cc1cc(-c2nc(-c3ccc([C@@H](C)N(C)CC(=O)O)cc3)no2)ccc1-c1ccccc1C(F)(F)F` (as salt: hydrochloride) [Example 35, N-methyl-N-[(1R)-1-(4-{5-[2-methyl-2′-(trifluoromethyl)biphenyl-4-yl]-1,2,4-oxadiazol-3-yl}phenyl)ethyl]glycine, hydrochloride salt], the melting point came to 217 °C.

Consider `Cc1ccccc1-c1ccc(-c2nc(-c3ccc([C@H](C)N[C@H](C)C(=O)O)cc3)no2)cc1C(F)(F)F` [Example 17, N-[(1S)-1-(4-{5-[2′-methyl-2-(trifluoromethyl)biphenyl-4-yl]-1,2,4-oxadiazol-3-yl}phenyl)ethyl]-D-alanine, hydrochloride salt], for which the Ki at S1P3 amounted to 2.25e-06 M; on S1P1 [1] (setting [3]) it was 2.01e-09 M. Also, it took 21 nM to reach a half-maximal effect on S1P1 [2] (EC50).

With `Cc1ccccc1-c1ccc(-c2nc(-c3ccc(CNC(C)(CO)C(=O)O)cc3)no2)cc1C(F)(F)F` (stereo not drawn) [Example 65], the Ki at S1P3 came to 2.56e-06 M; at S1P1 [1] (setting [3]), 4.82e-09 M. At S1P1 [2], this molecule came in with an EC50 of 7.53 nM.

`Cc1ccccc1-c1ccc(-c2nc(-c3cccc(CN(C)[C@@H](C)C(=O)O)c3)no2)cc1C(F)(F)F` [Example 81]: the Ki at S1P3 came to 1.72e-07 M; on S1P1 [1] (setting [3]), 1.72e-09 M. Moreover, the EC50 on S1P1 [2] was 49.5 nM.

As to `COCc1cc(-c2nc(-c3ccc(CN(C)C4(C(=O)O)CCCC4)cc3)no2)ccc1-c1ccccc1C` [Example 53, 1-((4-(5-(2-(methoxymethyl)-2′-methylbiphenyl-4-yl)-1,2,4-oxadiazol-3-yl)benzyl)(methyl)amino)cyclopentanecarboxylic acid], the figures for the inhibition constant Ki on S1P3 and at S1P1 [1] (setting [3]) were 3.64e-06 M and 3.97e-09 M, respectively. For the same molecule, on S1P1 [2], the EC50 worked out at 42.2 nM.

Take `CCC(NCc1ccc(-c2noc(-c3ccc(-c4ccccc4C)c(C(F)(F)F)c3)n2)cc1F)C(=O)O` (stereo not drawn) [Example 41, 2-[(2-fluoro-4-{5-[2′-methyl-2-(trifluoromethyl)biphenyl-4-yl]-1,2,4-oxadiazol-3-yl}benzyl)amino]butanoic acid, hydrochloride salt]: the Ki at S1P3 was 8.72e-06 M; on S1P1 [1] (setting [3]) it was 4.88e-09 M. At S1P1 [2], this molecule had an EC50 of 12.8 nM.

Regarding `Cc1ccccc1-c1ccc(-c2nc(-c3cccc(CN(C)C(C(=O)O)C(C)C)c3)no2)cc1C(F)(F)F` (stereo not drawn) [Example 85], the Ki at S1P3 turned out to be 7.93e-07 M; on S1P1 [1] (setting [3]), 5.26e-09 M. For the same molecule, at S1P1 [2], the concentration for a half-maximal effect (EC50) was determined as 47.9 nM.

As to `Cc1ccccc1-c1ccc(-c2nc(-c3ccc(C(CO)NCC(=O)O)cc3)no2)cc1C(F)(F)F` (stereo not drawn) [Example 52, 2-(2-Hydroxy-1-(4-(5-(2′-methyl-2-(trifluoromethyl)biphenyl-4-yl)-1,2,4-oxadiazol-3-yl)phenyl)ethylamino)acetic acid], the Ki amounted to 1.08e-06 M at S1P3 and 3.76e-09 M at S1P1 [1] (setting [3]). The EC50 at S1P1 [2] worked out at 10.2 nM.

Consider `Cc1cc(-c2nc(-c3ccc([C@@H](C)N[C@H](C)C(=O)O)cc3)no2)ccc1-c1ccccc1C(F)F` [Example 2, N-[(1R)-1-(4-{5-[2′-(difluoromethyl)-2-methylbiphenyl-4-yl]-1,2,4-oxadiazol-3-yl}phenyl)ethyl]-D-alanine, hydrochloride salt], for which the Ki on S1P3 is over 2e-05 M; on S1P1 [1] (96 well plate, read-out: S1P1 Binding Ki [M] (96 well plate)), 2.8e-10 M; on S1P1 [1] (setting [3]) it was 1.42e-09 M. In addition, the EC50 at S1P1 [2] is 10.3 nM.

As to `CC[C@@H](N[C@H](C)c1ccc(-c2noc(-c3ccc(-c4ccccc4C)c(C(F)(F)F)c3)n2)cc1)C(=O)O` [Example 11, (2R)-2-{[(1R)-1-(4-{5-[2′-methyl-2-(trifluoromethyl)biphenyl-4-yl]-1,2,4-oxadiazol-3-yl}phenyl)ethyl]amino}butanoic acid, hydrochloride salt], the Ki on S1P3 is 2.32e-06 M; on S1P1 [1] (setting [3]) it was 3.96e-09 M. In addition, the EC50 at S1P1 [2] was 26 nM.

In the case of `Cc1ccccc1-c1ccc(-c2nc(-c3ccc([C@H](C)N(C)CC(=O)O)cc3)no2)cc1C(F)(F)F` [Example 34, N-methyl-N-[(1S)-1-(4-{5-[2′-methyl-2-(trifluoromethyl)biphenyl-4-yl]-1,2,4-oxadiazol-3-yl}phenyl)ethyl]glycine, hydrochloride salt], the results for the Ki at S1P3 and on S1P1 [1] (setting [3]) were 6e-06 M and 4.47e-09 M, respectively. Further, at S1P1 [2], the EC50 turned out to be 26.3 nM.

Regarding `Cc1cc(-c2nc(-c3cccc(C(C)NCC(=O)O)c3)no2)ccc1-c1ccccc1C(F)(F)F` (stereo not drawn) [Example 38, N-[1-(3-{5-[2-methyl-2′-(trifluoromethyl)biphenyl-4-yl]-1,2,4-oxadiazol-3-yl}phenyl)ethyl]glycine, hydrochloride salt], the Ki amounted to 1.43e-06 M at S1P3 and 2.84e-09 M at S1P1 [1] (setting [3]). On S1P1 [2], this molecule returned an EC50 of 77.9 nM.

In the case of `Cc1cc(-c2nc(-c3cccc(C(C)NCC(=O)O)c3)no2)ccc1-c1ccccc1C(F)(F)F` (stereo not drawn) (as salt: hydrochloride) [Example 38, N-[1-(3-{5-[2-methyl-2′-(trifluoromethyl)biphenyl-4-yl]-1,2,4-oxadiazol-3-yl}phenyl)ethyl]glycine, hydrochloride salt], the melting point is 176 °C.

On to `Cc1ccccc1-c1ccc(-c2nc(-c3ccc([C@H](C)N[C@@H](C)C(=O)O)cc3)no2)cc1C(F)(F)F` (racemic) [Example 26, N-[(1S)-1-(4-{5-[2′-methyl-2-(trifluoromethyl)biphenyl-4-yl]-1,2,4-oxadiazol-3-yl}phenyl)ethyl]-L-alanine, hydrochloride salt and N-[(1R)-1-(4-{5-[2′-methyl-2-(trifluoromethyl)biphenyl-4-yl]-1,2,4-oxadiazol-3-yl}phenyl)ethyl]-D-alanine, hydrochloride salt], for which the Ki on S1P3 amounted to 1.65e-06 M; on S1P1 [1] (setting [3]), 2.24e-09 M. The molecule further displayed an EC50 on S1P1 [2] of 21.6 nM.

Take `Cc1ccccc1-c1ccc(-c2nc(-c3cccc(CCN[C@H](C(=O)O)C(C)C)c3)no2)cc1C(F)(F)F` [Example 96]: the Ki on S1P3 is 1.78e-07 M; at S1P1 [1] (setting [3]) it was 5.33e-10 M. Besides, on S1P1 [2], the EC50 stood at 3.73 nM.

For the molecule `Cc1cc(-c2nc(-c3ccc([C@H](C)N[C@H](C)C(=O)O)cc3)no2)ccc1-c1ccccc1C(F)(F)F` (racemic) [Example 25, N-[(1S)-1-(4-{5-[2-methyl-2′-(trifluoromethyl)biphenyl-4-yl]-1,2,4-oxadiazol-3-yl}phenyl)ethyl]-D-alanine and N-[(1R)-1-(4-{5-[2-methyl-2′-(trifluoromethyl)biphenyl-4-yl]-1,2,4-oxadiazol-3-yl}phenyl)ethyl]-L-alanine], the inhibition constant (Ki) on S1P3 is over 2e-05 M; at S1P1 [1] (setting [3]), 2.59e-09 M. This molecule gave an EC50 at S1P1 [2] of 28.1 nM.

As for `Cc1ccccc1-c1ccc(-c2nc(-c3ccc(CNC(C)(C)C(=O)O)c(F)c3)no2)cc1C(F)(F)F` [Example 49, N-(2-fluoro-4-{5-[2′-methyl-2-(trifluoromethyl)biphenyl-4-yl]-1,2,4-oxadiazol-3-yl}benzyl)-2-methylalanine, hydrochloride salt], the Ki is 9.71e-07 M on S1P3 and 1.06e-09 M at S1P1 [1] (setting [3]). The molecule also displayed an EC50 at S1P1 [2] of 13.8 nM.
